Data: EP0458214A1, “Bicyclic 1-azacycloalcanes” (BOEHRINGER INGELHEIM KG, priority 1990, dated 1991)
Residue numbers refer to the chain shown, from its start.

Experiments:
muskarinen Rezeptoren = test: Receptor binding studies (Tabelle A), radioligand displacement; details: Radioligand L(+)cis-[2-Methyl-³H]-N,N,N-trimethyl-1, 3-dioxolan-4-methanammonium-jodid; Organ: Cerebraler Cortex (Ratte)
Excerpt: Die zur Synthese notwendigen Ausgangsverbindungen, die entsprechenden Hydroxyazabicycloalkane, sind aus dem Stand der Technik bekannt, [drawing 9] so z.B. für n = O aus JACS 74, 2215 (1952) (IIa), J. Org. Chem. 33, 4376 (1968) (IIb), der europäischen Patentanmeldung 307 140 (III) und J. Pharm. Science 52, 331 (1954) (IV). Ausgangsverbindungen (R = H), in denen n = 1 oder 2 bedeutet, sind durch Reduktion der entsprechenden Alkylester (X -R = COOAlkyl) erhältlich. Ausgehend von den entsprechenden Ketonen lassen sich die Thiole der allgemeinen Formeln II und III in Analogie zu dem in J. Chem. 43, 1965 beschriebenen Verfahren herstellen. Ist R in der allgemeinen Formel I ein aromatischer oder heteroaromatischer Rest, so können die Verbindungen der allgemeinen Formel I unter Anwendung der Mitsunobu Reaktion (O. Mitusunobu in Synthesis, 1, 1981, Georg Thieme Verlag, Stuttgart; J. C. S. Perkin I, Seite 462, 1975) durch Umsetzung der entsprechenden hydroxysubstituierten Reaktanden (Formel I R=H, Reagenz HOR, R=Phenyl,Heterocyclus) in Gegenwart von Azodicarbonsäurediethylester und Triphenylphospin erhalten werden. Die Umsetzung erfolgt im allgemeinen in inerten organischen Lösungsmitteln bei Raumtemperatur. Die Verbindungen der allgemeinen Formel I besitzen wertvolle pharmakologische Eigenschaften. So zeigen die Verbindungen in Bindungsstudien Affinitäten zu muskarinen Rezeptoren und muskarin-agonistische GTP-Shifts (GTP = Guanosintriphosphat). (Birdsall, N.I.M., E.C. Hulme and I.M. Stockton 1984 in T.I.P.S. Supplement, Proc. Internat. Symposium on Subtypes of Muscarinic Receptors, Ed. Hirschowitz, Hammer, Giacchetti, Klirns, Levine; Elsevier p. 4 - 8).
Die Rezeptorbindungsstudien wurden gemäß dem nachstehenden Literaturzitat ausgeführt [A. Closse, H. Bittiger, D. Langenegger und A. Wahner; Naunyn-Schmiedeberg's Arch. Pharmacol. 335, 372 - 377 (1987)].
Radioligand: L(+)cis-[2-Methyl-³H]-N,N,N-trimethyl-1, 3-dioxolan-4-methanammonium-jodid NET-647, Fa. NEN (New England Nuclear DU PONT). Organ: Cerebraler Cortex (Ratte)

human-m₁-Rezeptorsubtyp = target: T1, human-m₁-Rezeptorsubtyp (Homo sapiens, UniProt P11229); test: Stimulation of phosphatidylinositol turnover in CHO cell cultures; type: cell-based; details: CHO-Zellkulturen mit human-m₁-Rezeptorsubtyp; gegenüber dem Razemat und dem (-)-Enantiomer
T1 construct: expressed in transfected cells; host or cells: CHO cells
T1 sequence (P11229 1-460): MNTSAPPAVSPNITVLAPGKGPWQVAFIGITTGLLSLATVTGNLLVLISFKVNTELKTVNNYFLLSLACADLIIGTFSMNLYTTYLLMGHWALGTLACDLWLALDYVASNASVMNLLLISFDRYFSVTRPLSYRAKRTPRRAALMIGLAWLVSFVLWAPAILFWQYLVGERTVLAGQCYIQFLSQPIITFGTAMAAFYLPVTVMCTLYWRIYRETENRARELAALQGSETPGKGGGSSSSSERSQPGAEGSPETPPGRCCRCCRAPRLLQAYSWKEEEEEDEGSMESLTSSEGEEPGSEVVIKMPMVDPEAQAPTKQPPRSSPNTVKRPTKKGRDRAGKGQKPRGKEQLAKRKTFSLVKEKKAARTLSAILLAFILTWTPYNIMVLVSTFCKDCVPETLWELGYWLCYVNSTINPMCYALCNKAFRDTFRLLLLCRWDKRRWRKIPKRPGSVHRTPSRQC

Muskarinsubtypen M₃ = Muskarinsubtypen M₃ (Rattus norvegicus, UniProt P08483); test: Binding studies at muscarinic subtypes; set-up: species or system Ratte; details: gegenüber dem Razemat und dem (-)-Enantiomer
Kaninchen = test: Cholinomimetic in vivo activity by EEG (theta wave increase)
Excerpt: Die cholinomimetische in-vivo-Wirksamkeit von (+)-(Propargyloxymethyl)-1-aza-bicyclo- [2.2.2]octan wurde am Kaninchen mittels EEG (Thetawellenzunahme) nachgewiesen.

Muskarinsubtypen M₂ = target: T2, Muskarinsubtypen M₂ (Rattus norvegicus, UniProt P10980); test: Binding studies at muscarinic subtypes; set-up: species or system Ratte; details: gegenüber dem Razemat und dem (-)-Enantiomer
T2 sequence (P10980 1-466): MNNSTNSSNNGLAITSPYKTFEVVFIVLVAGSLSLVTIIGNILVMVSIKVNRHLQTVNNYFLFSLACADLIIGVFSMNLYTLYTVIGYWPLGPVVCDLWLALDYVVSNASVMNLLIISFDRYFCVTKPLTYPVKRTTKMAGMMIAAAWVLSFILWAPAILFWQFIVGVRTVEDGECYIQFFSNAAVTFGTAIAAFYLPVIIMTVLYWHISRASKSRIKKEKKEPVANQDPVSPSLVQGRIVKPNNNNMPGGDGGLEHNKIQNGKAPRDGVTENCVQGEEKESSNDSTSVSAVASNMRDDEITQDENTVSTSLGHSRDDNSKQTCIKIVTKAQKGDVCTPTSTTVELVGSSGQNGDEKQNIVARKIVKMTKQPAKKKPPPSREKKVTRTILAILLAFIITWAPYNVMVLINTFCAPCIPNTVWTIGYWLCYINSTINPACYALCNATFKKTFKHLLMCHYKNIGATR

Muskarinsubtypen M₁ = target: T3, Muskarinsubtypen M₁ (Rattus norvegicus, UniProt P08482); test: Binding studies at muscarinic subtypes; set-up: species or system Ratte; details: gegenüber dem Razemat und dem (-)-Enantiomer
T3 sequence (P08482 1-460): T1 sequence (P11229 1-460) with A5V, T254S, P309S, R320K, A337G, I413V

Chain of Muskarinsubtypen M₃ (P08483 whole entry): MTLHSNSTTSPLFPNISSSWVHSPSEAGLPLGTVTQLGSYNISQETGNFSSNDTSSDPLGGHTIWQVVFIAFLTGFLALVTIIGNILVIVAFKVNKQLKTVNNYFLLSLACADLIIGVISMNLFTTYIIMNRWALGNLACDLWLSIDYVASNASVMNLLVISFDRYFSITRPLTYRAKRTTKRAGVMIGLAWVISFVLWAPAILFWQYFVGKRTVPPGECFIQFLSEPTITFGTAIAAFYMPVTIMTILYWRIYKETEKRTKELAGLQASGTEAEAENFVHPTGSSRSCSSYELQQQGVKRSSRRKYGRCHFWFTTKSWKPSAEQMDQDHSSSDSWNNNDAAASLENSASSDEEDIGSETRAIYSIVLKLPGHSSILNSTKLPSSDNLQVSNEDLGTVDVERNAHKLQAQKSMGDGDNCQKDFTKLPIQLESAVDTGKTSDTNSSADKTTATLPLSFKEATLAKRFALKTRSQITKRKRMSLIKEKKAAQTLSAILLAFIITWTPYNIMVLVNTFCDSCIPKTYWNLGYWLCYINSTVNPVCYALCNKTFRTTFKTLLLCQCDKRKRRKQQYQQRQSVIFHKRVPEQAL

## c1ccc(COC2CN3CCC2CC3)cc1 (racemic) [Beispiel 4]
Muskarinen Rezeptoren
  Ki: 229 nM

## C#CCOCC1CN2CCC1CC2 (single isomer, unassigned; (+)) [(+)-3-(Propargyloxymethyl)-1-azabicyclo[2.2.2]octan]
human-m₁-Rezeptorsubtyp
  Stimulation des Phosphatidylinositol-turnovers: stärker wirksam
Muskarinsubtypen M₃
  Bindungsstudien M₃: Wirksamkeit in vitro: stärker wirksam
Kaninchen
  cholinomimetische in-vivo-Wirksamkeit (Thetawellenzunahme): nachgewiesen
Muskarinsubtypen M₂
  Bindungsstudien M₂: Wirksamkeit in vitro: stärker wirksam
Muskarinsubtypen M₁
  Bindungsstudien M₁: Wirksamkeit in vitro: stärker wirksam

## c1cncc(OC2CN3CCC2CC3)c1 (centres unmarked) [Beispiel 1]
Muskarinen Rezeptoren
  Ki: 120 nM

## c1ccc(OC2CN3CCC2CC3)cc1 (centres unmarked) [Beispiel 9, 3-Phenoxy-1-azabicyclo[2.2.2]octan]
Muskarinen Rezeptoren
  Ki: 89 nM
